Results from PMC9297947 (Chembiochem, 2021).
* marks the point of attachment. X1 = Nc1ncnc2c1ncn2[C@@H]1O[C@H](C(=O)NCCNC(=O)CCN2C(=O)CC(*)C2=O)[C@@H](O)[C@H]1O

Experiments:
[1] = biological target: T1, AurA (Homo sapiens, UniProt O14965); experiment: IMAP TR-FRET kinase inhibition assay, AurA; format: biochemical; conditions: for IC50: FAM-Kemptide 1 µM, ATP 5 µM (Table S2; Figure 3 legend prints mM), TBS reaction buffer
T1 construct: purchased Carna Bioscience
T1 sequence (O14965 1-403): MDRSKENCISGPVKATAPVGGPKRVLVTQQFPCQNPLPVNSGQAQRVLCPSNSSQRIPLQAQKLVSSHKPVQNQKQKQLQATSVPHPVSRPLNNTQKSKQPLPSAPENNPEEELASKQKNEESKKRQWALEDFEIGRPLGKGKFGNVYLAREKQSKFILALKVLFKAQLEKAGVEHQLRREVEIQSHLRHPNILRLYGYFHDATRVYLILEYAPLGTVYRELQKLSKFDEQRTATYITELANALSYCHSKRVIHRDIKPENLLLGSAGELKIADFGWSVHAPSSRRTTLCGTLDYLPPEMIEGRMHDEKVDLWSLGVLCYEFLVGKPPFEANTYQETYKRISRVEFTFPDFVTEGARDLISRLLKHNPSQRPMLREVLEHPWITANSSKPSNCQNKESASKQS

[2] = biological target: T1, AurA; experiment: Lineweaver-Burk inhibition mechanism (IMAP TR-FRET, various ATP), AurA; format: biochemical; conditions: Lineweaver-Burk plot, various concentrations of ATP
Text: Inhibition Mechanism of Peptide inhibitor Bip-3 for Aurora-A
Lineweaver-Burk plots were generated by plotting the TR-FRET ratio values, which are proportional to reaction velocity in these conditions [8,9], as a function of the velocity versus ATP concentration ratio (v/[ATP]) at different concentrations of the peptide [19,20].

[3] = test system: phage infectivity of the host TG1 E. coli cells; experiment: Phage infectivity after chemical modification; conditions: higher concentrations within 0.5–500 μM in PBS, room temperature, 2 h; P8-2KA phage clone
Experimental: Mild conditions are required for modification to minimize damage to phage clones so that they remain infectious to the host Escherichia coli cells.[[8a]] […] Phage clones (10^11 cfu) of P8‐2KA were treated with 200 μL of serially diluted maleimide‐PEG2‐biotin (0.5–500 μM) in PBS at room temperature for 2 h (Supporting Figure S3).
2. Chemical Modification of HLH peptide on Phage
All of the experiments were performed as described. 200 µL of phage (1012 cfu) was dissolved in PBS (pH 7.0), and 1 µL of 1 mM Maleimide-PEG2-biotin (EZ-Link® Maleimide-PEG2-Biotin, Thermo Scientific) was added and incubated for 2 hr at room temperature. To eliminate the residual reagents in phage solution, the treated solution was purified by ultrafiltration at 14,000 g for 20 min at 4 C by using Amicon® Ultra 0.5 mL Ultracel® 10K (Millipore). After discarding the flow-through, 200 µL of chilled PBST was added, and centrifugated as the same above. 100 µL of the chemically modified phage was added to Streptavidin High Capacity Coated Plate (SIGMA). Detection of phages was performed as described above by using Anti-M13 antibody conjugated with HRP.
3. The Infectivity of phages after Chemical Modification
All of the experiments were performed as described. […] Then the E. coli cells were inoculated onto LB/Agar containing 20 µg/mL chloramphenicol over night at 37°C, and colonies were counted. […]

[4] = test system: anti‐E‐tag antibody; experiment: Phage ELISA, anti-E-tag antibody; format: binding; conditions: phage clone displaying P8-2KA, 10^10 cfu; HRP anti-M13, OD490
Experimental: (§1) All of the experiments were performed as described . In this study, the insert fragment encoding of helix-loop- helix (HLH) peptide P8-2KA and phage clone displaying no peptide were prepared. With regard to clone P8-2KA, the insert fragment was initially prepared by overlap extension PCR using P8-2KA 1 fwd and P8-2KA 1 rev. After purification of the fragment, restriction site SfiI and E-tag epitope were introduced by the following PCR using Sfi- YT1- CD 2 fwd and Etag- linker 2 rev, and the product was purified. The fragment was fused with the pIII gene amplified by the two primers prepcr and Sfi2fo with the template fdg3p0ss21, and a fragment encoding P8- 2KA- fused pIII was prepared as described. After digestion of the fragment by SfiI and the succeeding purification, the fragment was ligated with fdg3p0ss21-stop which was digested with the same restriction enzyme. As a negative control, we also prepared a clone displaying no HLH peptide on phage. To prepare the phage clone, only linker primer was used in the PCR together with Sfi2fo and the pIII gene amplified from the template fdg3p0ss21 as described above. […]
(§2) […] After was hing the wells with PBST 10 times, 100 µL of HRP Anti-M13 antibody conjugated (1:4000) was added, and the OD490 values were measured after adding o-phenylene diamine ([…] OPD, SIGMA) and adding 50 µL of

[5] = test system: G‐CSF‐R; experiment: Phage ELISA, G-CSF-R; format: binding; conditions: phage clone displaying P8-2KA, 10^10 cfu; HRP anti-M13, OD490
Experimental: as §1, §2

[6] = test system: BSA; experiment: Phage ELISA, BSA; format: binding; conditions: phage clone displaying P8-2KA, 10^10 cfu; HRP anti-M13, OD490
Experimental: as §1, §2

[7] = test system: KDR (VEGF receptor); experiment: Phage ELISA, KDR; format: binding; conditions: phage clone displaying P8-2KA, 10^10 cfu; HRP anti-M13, OD490
Experimental: as §1, §2

[8] = biological target: G‐CSF‐R; conditions: ref [2e] El-Haggar et al., Bioorg. Med. Chem. Lett. 2010; cited from earlier work
Text: Mild conditions are required for modification to minimize damage to phage clones so that they remain infectious to the host Escherichia coli cells.[[8a]]

[9] = test system: AurA, AurB, AurC, PAK4, Erk2, PKACα, and Src; experiment: IMAP TR-FRET kinase selectivity panel; format: biochemical; conditions: 5 μM Bip-3-Adc vs AurA
Experimental: Figure 3 Inhibitory activities of the selected peptide Bip‐3 and the adenosine‐tethering peptide Bip‐3‐Adc for AurA. (a) The structure of synthesized Bip‐3‐Adc, Bip‐3, and the original HLH peptide YT1. (b) The CD spectra of 20 μM Bip‐3 and YT1 measured in TBS at 20 °C. (c) The binding activity of Bip‐3 to immobilized AurA as determined by SPR experiments (TBS, 0.005 % P‐20, 25 °C). (d) Dose‐dependent inhibitory activities of Bip‐3 and Bip‐3‐Adc for AurA measured using an IMAP® TR‐FRET assay. Inhibition of AurA was determined at 100 ng/mL AurA, 1 mM 5FAM‐Kemptide, 5 mM ATP, in TBS reaction buffer. (e) Inhibitory activities of 5 μM Bip‐3‐Adc for AurA, AurB, AurC, PAK4, Erk2, PKACα, and Src, determined using the IMAP® TR‐FRET assay.
CD spectra were recorded in TBS at overall peptide concentration of 20 μM on a J-820 spectrometer at 20°C (PTC-423L thermostat, Jasco). The peptide concentrations were determined by measuring absorbance of aromatic residues of peptide dissolved in 6 M Gdn•HCl at UV 280 nm[14].
9. Surface Plasmon Resonance […]
denaturation of AurA, measurements were performed without regeneration of the sensor chip surface at each cycle, and any cycles were started after complete dissociation of analytes from the sensor chip. […] The concentration of adenosine-labeled peptide was determined by using the molar extinction coefficient of adenosine, and aromatic residues at UV 260 […]

[10] = Circular dichroism; format: physicochemical; conditions: CD, 20 μM peptide in TBS, 20 °C; compared with YT1
[11] = biological target: T2, Aurora kinase A (AurA) (Homo sapiens, UniProt O14965); experiment: SPR
T2 chain: T1 sequence (O14965 1-403)

[12] = 100 ng/mL AurA, 1 hr, room temperature

Molecule: Nc1ncnc2c1ncn2[C@@H]1O[C@H](CO)[C@@H](O)[C@H]1O [adenosine]
- IC50 [1, 12]: 0.474 mM
- mode of inhibition with respect to ATP [2]: competitive inhibition for ATP

Molecule: O=C(CCCC[C@@H]1SC[C@@H]2NC(=O)N[C@@H]21)NCCOCCOCCNC(=O)CCN1C(=O)C=CC1=O [maleimide‐PEG2‐biotin]
- phage infectivity of TG1 E. coli cells [3]: small loss of phage infectivity

Molecule: AELAALEAELAALE‐G7‐KLAALKAKLAALKAY [YT1]
- inhibitory activity for AurA [1, 12]: no inhibitory activity

Molecule: CDGGSGGGS‐AELAALEAELAALE‐G7‐KLAMLKLKLAELKRY [P8‐2KA]
- binding to anti-E-tag antibody [4]: bound to anti‐E‐tag antibody
- binding to G-CSF-R [5]: selective binding
- binding to BSA [6]: no binding was observed
- binding to KDR [7]: no binding was observed
- Kd [8]: 0.214 µM

Molecule: H-C(X1)DGGSGGGSAELAALEAELAALEGGGGGGGKLEYLKWKLWPLKGW-NH2 [Bip‐3‐Adc]
- fold difference in IC50 (inhibition of AurA) vs Bip-3 ([1]; Bip-3-Adc vs Bip-3 (IC50 103 μM)): 13 fold
- fold difference in IC50 (inhibition of AurA) vs adenosine ([1]; Bip-3-Adc vs adenosine (IC50 474 μM)): 62 fold
- mode of inhibition with respect to ATP [2]: uncompetitive inhibition
- kinase selectivity [9]: highest inhibitory activity and remarkable selectivity for AurA

Molecule: H-CDGGSGGGSAELAALEAELAALEGGGGGGGKLEYLKWKLWPLKGW-NH2 [Bip‐3]
- IC50 [1, 12]: 0.103 mM
- mode of inhibition with respect to ATP [2]: mixed inhibition
- α-helical content [10]: high α‐helical content comparable with that of the original peptide YT1

B1: Bip-3 (peptide)
chain: CDGGSGGGSAELAALEAELAALEGGGGGGGKLEYLKWKLWPLKGW
- Kd [11]: 13.7 µM
